From US20260209242A1, “CAMPTOTHECIN DERIVATIVE, PHARMACEUTICAL COMPOSITION, AND PREPARATION METHOD AND USE THEREFOR” (priority 2022, published 2026)
≈ marks a conversion by molar mass, not a printed value.

How the values were obtained:
[1] = Kinetic solubility test in PBS 7.4; type: physicochemical
Procedure: 10 mM stock solutions of the test substances 6-2, 11-2, 17-2, Dxd, and the control drugs progesterone and diclofenac were prepared using DMSO respectively.
15 μL of 10 mM stock solution of each of the test substances was added to a corresponding position of a corresponding 96-well plate in a specified sequence. 485 μL of the PBS 7.4 was added to a corresponding vial on a sample plate. The experiment was run in duplicate. Each vial was additionally provided with a stirring rod and was plugged. Then, the sample plate was transferred in a thermostatic mixer, and oscillated at a revolving speed of 1,100 rpm at 25° C. for 2 h. 2 h later, the plug was removed, the stirring rod was attracted away with a large magnet, and then the sample was transferred from the sample plate to the filter plate. Negative pressure was generated using a vacuum pump to filter the sample. 5 μL of filtrate and 5 μL of blank DMSO were transferred to another sample plate, and then 490 μL of internal standard water (acetonitrile:water=1:1) containing the internal standard was added. Depending on peak shapes, a certain proportion of internal standard water may be used to dilute the sample diluent to obtain better peak shapes.
6 μL was transferred from the 10 mM DMSO stock solution plate to a blank plate, and was prepared into a 300 μM standard substance solution with addition of 194 μL of DMSO. 5 μL was transferred from the 300 μM standard substance solution plate to still another blank plate, and then 5 μL of blank buffer and 490 μL of the internal standard water containing the internal standard (acetonitrile:water=1:1) were added until a final concentration of the standard substance solution was 3 μM.
An injection plate was transferred on an injection tray of an autosampler to evaluate the sample by LC/MS analysis.
All calculations were performed using Microsoft Excel.
The sample filtrate was analyzed and quantified by qualitative and quantitative LC/MS of standard substance peaks at known concentrations. The calculation formula for the solubility values of the reference drugs and the test substances are as follows:
[Sample] is the compound concentration, DFSample refers to the sample dilution factor, [STD] is the standard substance concentration of the compound, AREAStd is the standard substance peak area of the compound, and AREASample is the peak area of the compound sample.

CYP2D6 = CYP2D6 (Homo sapiens, UniProt P10635); test: Inhibition on human hepatomicrosomes CYP2D6
Chain of CYP2D6 (P10635 whole entry): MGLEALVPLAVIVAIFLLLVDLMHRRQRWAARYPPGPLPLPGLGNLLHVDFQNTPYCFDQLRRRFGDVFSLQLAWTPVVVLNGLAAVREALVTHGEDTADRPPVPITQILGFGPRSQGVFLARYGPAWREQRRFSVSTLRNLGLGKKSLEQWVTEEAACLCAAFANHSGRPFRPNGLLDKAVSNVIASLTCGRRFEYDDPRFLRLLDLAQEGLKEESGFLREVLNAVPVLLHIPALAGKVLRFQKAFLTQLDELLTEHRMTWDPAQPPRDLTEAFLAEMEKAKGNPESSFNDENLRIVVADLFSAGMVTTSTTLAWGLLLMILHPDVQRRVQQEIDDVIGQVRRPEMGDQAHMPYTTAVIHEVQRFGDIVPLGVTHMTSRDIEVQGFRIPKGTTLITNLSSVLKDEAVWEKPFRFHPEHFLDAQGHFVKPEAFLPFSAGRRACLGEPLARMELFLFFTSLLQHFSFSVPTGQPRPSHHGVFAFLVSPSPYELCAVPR

[2] = Stability of compounds in human plasma; type: in vitro ADME
Procedure: • (1) 199 μL of human plasma was added to the culture plate of each cell. The culture plate was preheated to 37° C., and kept at this temperature for 15 min. • (2) After preincubation, 1 μL of 1 mmol/L each test compound and 1 μL of 1 mmol/L control compound were added to 199 μL of plasma, so that a final concentration of each test compound was 5 μmol/L and that of the control compound was 5 gmol/L. The final concentration of the organic solvent was 0.5%. The experiment would be duplicated twice. • (3) Reaction samples were incubated at 37° C. • (4) The reaction was stopped by adding 600 μL of cold methanol containing the internal standard at 0, 1, 2, 6, and 24 h. Each sample was vortex mixed for 10 min, and then centrifuged at 3,220 g for 30 min to precipitate the protein. […] Based on the signal response and peak shapes of liquid chromatography-mass spectrometry (LC-MS), the supernatant would be diluted with ultrapure water.
All calculations were performed using Microsoft Excel. The peak area ratio was determined from the chromatogram of extracted ions. The percentage of compounds remaining at each time point was calculated as per the following formula: […]

**Q.** What does the source list for `CC[C@@]1(O)C(=O)OCc2c1cc1n(c2=O)Cc2c-1nc1cc(F)c(C)c3c1c2[C@@H](NC(=O)[C@@H](O)C1CC1)CCC3` [Compound 11-2, (S)-2-cyclopropyl-N-((1S,10S)-10-ethyl-6-fluoro-10-hydroxy-5-methyl-11,14-dioxo-1,2,3,4,10,11,14,16-octahydro-13H-cyclohepta[de]pyrano[3′,4′:6,7]indolizino[1,2-b]quinolin-1-yl)-2-hydroxyacetamide]?
**A.** solubility in the PBS 7.4 compared with Dxd (in words) [1]: significantly better solubility in the PBS 7.4 than Dxd; solubility at 2 h ([1]; 25 °C, pH 7.4, aqueous buffer, kinetic from dmso stock): 34 µM (≈ 18.6 µg/mL); IC50 (CYP2D6): > 30 µM; Residual percentage (%) 1 h ([2]; 1 h, 5 μmol/L): 96.80%; Residual percentage (%) 2 h ([2]; 2 h, 5 μmol/L): 92.06%; Residual percentage (%) 6 h ([2]; 6 h, 5 μmol/L): 94.45%; Residual percentage (%) 24 h ([2]; 24 h, 5 μmol/L): 88.81%; stability in human plasma (in words) ([2]; plasma): good stability in human plasma
